Experimental data from ChEMBL document CHEMBL4825699, “Metabolic and conformational stabilization of a VEGF-mimetic beta-hairpin peptide by click-chemistry” (Eur J Med Chem, 2021).
The source made the active and inactive calls. The rule behind the calls is not given here.

Legend:
[1] = tested on: HUVEC; experiment: Binding affinity to VEGFR in human HUVEC assessed as induction of cell proliferation at 25 to 50 nM measured after 48 hrs by CyQuant NF Cell Proliferation assay relative to control; settings: dose 25-50 nM
[2] = tested on: HUVEC; experiment: Cytotoxicity against human HUVEC assessed as reduction in cell viability at 50 nM measured after 48 hrs by CyQuant NF Cell Proliferation assay; assay type: cell-based; settings: 0.05 µM
[3] = Metabolic stability of the compound in 50% human serum incubated for 120 mins by RP-HPLC analysis; assay type: ADME, cell-free; settings: read-out: Stabilty
[4] = tested on: HUVEC; experiment: Pro-angiogenic activity in human HUVEC assessed as organization into capillary network formation by measuring increase in branch points number counting at 50 nM measured after 6 hrs by inverted microscopy relative to HPLW; assay type: functional
[5] = tested on: HUVEC; experiment: Pro-angiogenic activity in human HUVEC assessed as organization into capillary network formation by measuring increase in branch points number counting at 50 nM measured after 6 hrs by inverted microscopy relative to Ac-HPLW-NH2; assay type: functional
[6] = tested on: HUVEC; experiment: Binding affinity to VEGFR in human HUVEC assessed as induction of cell proliferation measured after 24 to 48 hrs by CyQuant NF Cell Proliferation assay; settings: dose 25-50 nM, time 24-48 hrs
[7] = tested on: HUVEC; experiment: Binding affinity to VEGFR in human HUVEC assessed as induction of cell proliferation at 25 to 50 nM measured after 48 hrs by CyQuant NF Cell Proliferation assay relative to Ac-HPLW-NH2; settings: dose 25-50 nM
[8] = tested on: HUVEC; experiment: Binding affinity to VEGFR in human HUVEC assessed as induction of cell proliferation at 25 to 50 nM measured after 48 hrs by CyQuant NF Cell Proliferation assay relative to HPLW; settings: dose 25-50 nM
[9] = tested on: HUVEC; experiment: Binding affinity to VEGFR in human HUVEC assessed as induction of cell proliferation at 50 nM measured after 48 hrs in presence of 250 nM VEGFR1D2 by CyQuant NF Cell Proliferation assay
[10] = Metabolic stability of the compound in 50% human serum assessed as drug degradation incubated for 120 mins by RP-HPLC analysis; assay type: ADME, cell-free; settings: read-out: Drug degradation
[11] = Metabolic stability of the compound in 50% human serum assessed as half life by RP-HPLC analysis; assay type: ADME, cell-free

| remaining at 2 h [3] [%] | metabolised at 2 h [10] [%] | half-life [11] [min] | Compound | Activity [1] [%] | Activity [2] | Activity [4] [%] | Activity [5] [%] | Activity [6] | Activity [7] [%] | Activity [8] [%] | Activity [9] |
| --- | --- | --- | --- | --- | --- | --- | --- | --- | --- | --- | --- |
| 100 | – | – | CC[C@H](C)[C@@H]1NC(=O)[C@@H](NC(=O)[C@H](CC(C)C)NC(=O)[C@H](CC(C)C)NC(=O)[C@H](CCC(N)=O)NC(=O)[C@H](CCCCN)NC(C)=O)CCCc2cn(nn2)CCC[C@@H](C(=O)N[C@@H](Cc2ccc(O)cc2)C(=O)N[C@@H](Cc2c[nH]c3ccccc23)C(=O)N[C@H](C(=O)N[C@@H](CO)C(N)=O)[C@@H](C)O)NC(=O)[C@@H]2CCCN2C(=O)[C@H](CCCNC(=N)N)NC(=O)[C@H](CC(=O)O)NC(=O)CNC(=O)[C@H](CO)NC(=O)[C@H](CCCNC(=N)N)NC1=O | 92 | Non-Toxic | 13 | 28 | Toxic | 30 | 37 | inactive |
| – | 100 | 25 | Ac-KQLLWIRSGDRPWYYTS-NH2 | – | Non-Toxic | – | – | Dose-Dependent Effect | – | – | inactive |
| – | 100 | 25 | H-KQLLWIRSGDRPWYYTS-OH | – | Non-Toxic | – | – | Dose-Dependent Effect | – | – | inactive |
